Test results as given in patent US10770169B2, “Method of providing a treatment to a subject based on a dynamic pathway map” (THE REGENTS OF THE UNIVERSITY OF CALIFORNIA, priority 2010, dated 2020).
Like-named read-outs stand apart in the source and are kept apart here.

Test system: panel of 55 breast cancer cell lines
Experiment: Cell growth inhibition assay (Cell Titer Glo, 72 h, 9 doses; GI50, TGI, LC50)
Type: cell-based, human

COc1cc2ncnc(Nc3ccc(F)c(Cl)c3)c2cc1OCCCN1CCOCC1 [Iressa]
GI50 (Homo sapiens, 600MPE cell line, censored GI50 values, read-out: GI50 (converted)): 7.24 µM | GI50 (Homo sapiens, AU565, AU565 cell line, censored GI50 values, read-out: GI50 (converted)): 1.07 µM | GI50 (Homo sapiens, BT-474, BT474 cell line, censored GI50 values, read-out: GI50 (converted)): 0.724 µM | GI50 (Homo sapiens, BT-483, BT483 cell line, censored GI50 values, read-out: GI50 (converted)): 6.17 µM | GI50 (Homo sapiens, BT-549, BT549 cell line, censored GI50 values, read-out: GI50 (converted)): 15.1 µM | GI50 (Homo sapiens, HCC70, HCC70 cell line, censored GI50 values, read-out: GI50 (converted)): 17.4 µM | GI50 (Homo sapiens, HCC1143, HCC1143 cell line, censored GI50 values, read-out: GI50 (converted)): 11.7 µM | GI50 (Homo sapiens, HCC1395, HCC1395 cell line, censored GI50 values, read-out: GI50 (converted)): 7.08 µM | GI50 (Homo sapiens, HCC1419, HCC1419 cell line, censored GI50 values, read-out: GI50 (converted)): 2.75 µM | GI50 (Homo sapiens, HCC1428, HCC1428 cell line, censored GI50 values, read-out: GI50 (converted)): 10.7 µM | GI50 (Homo sapiens, HCC1500, HCC1500 cell line, censored GI50 values, read-out: GI50 (converted)): 8.13 µM | GI50 (Homo sapiens, HCC1806, HCC1806 cell line, censored GI50 values, read-out: GI50 (converted)): 4.68 µM | GI50 (Homo sapiens, HCC1937, HCC1937 cell line, censored GI50 values, read-out: GI50 (converted)): 8.32 µM | GI50 (Homo sapiens, HCC1954, HCC1954 cell line, censored GI50 values, read-out: GI50 (converted)): 2.04 µM | GI50 (Homo sapiens, HCC2185 cell line, censored GI50 values, read-out: GI50 (converted)): 9.33 µM | GI50 (Homo sapiens, MDA-MB-157, MDAMB157 cell line, censored GI50 values, read-out: GI50 (converted)): 15.1 µM | GI50 (Homo sapiens, MDA-MB-175-VII, MDAMB175VII cell line, censored GI50 values, read-out: GI50 (converted)): 0.209 µM | GI50 (Homo sapiens, MDA-MB-361, MDAMB361 cell line, censored GI50 values, read-out: GI50 (converted)): 6.46 µM | GI50 (Homo sapiens, MDA-MB-415, MDAMB415 cell line, censored GI50 values, read-out: GI50 (converted)): 7.41 µM | GI50 (Homo sapiens, MDA-MB-453, MDAMB453 cell line, censored GI50 values, read-out: GI50 (converted)): 7.41 µM | GI50 (Homo sapiens, SK-BR-3, SKBR3 cell line, censored GI50 values, read-out: GI50 (converted)): 2.82 µM | GI50 (Homo sapiens, SUM52PE, SUM52PE cell line, censored GI50 values, read-out: GI50 (converted)): 7.94 µM | GI50 (Homo sapiens, SUM149PT, SUM149PT cell line, censored GI50 values, read-out: GI50 (converted)): 2.88 µM | GI50 (Homo sapiens, SUM185PE, SUM185PE cell line, censored GI50 values, read-out: GI50 (converted)): 20.9 µM | GI50 (Homo sapiens, SUM1315MO2, SUM1315MO2 cell line, censored GI50 values, read-out: GI50 (converted)): 2.95 µM | GI50 (Homo sapiens, SUM-159-PT, SUM159PT cell line, censored GI50 values, read-out: GI50 (converted)): 8.51 µM | GI50 (Homo sapiens, T47D, T47D cell line, censored GI50 values, read-out: GI50 (converted)): 15.8 µM | GI50 (Homo sapiens, UACC-893, UACC893 cell line, censored GI50 values, read-out: GI50 (converted)): 1.15 µM

O=C1NC(=O)/C(=C/c2ccc3nccc(-c4ccncc4)c3c2)S1 [GSK1059615B]
GI50 (cell line 600MPE, censored GI50 values, value is the negative log10 of mol/L): 6.31 | GI50 (cell line 600MPE, value is the negative log10 of mol/L): 6.31 | GI50 (cell line AU565, censored GI50 values, value is the negative log10 of mol/L): 6.32 | GI50 (cell line AU565, value is the negative log10 of mol/L): 6.32 | GI50 (cell line BT474, censored GI50 values, value is the negative log10 of mol/L): 6.80 | GI50 (cell line BT549, censored GI50 values, value is the negative log10 of mol/L): 5.73 | GI50 (cell line CAMA1, censored GI50 values, value is the negative log10 of mol/L): 5.77 | GI50 (cell line HCC38, censored GI50 values, value is the negative log10 of mol/L): 6.11 | GI50 (cell line HCC70, censored GI50 values, value is the negative log10 of mol/L): 6.75 | GI50 (cell line HCC202, censored GI50 values, value is the negative log10 of mol/L): 7.23 | GI50 (cell line HCC1143, censored GI50 values, value is the negative log10 of mol/L): 6.26 | GI50 (cell line HCC1187, censored GI50 values, value is the negative log10 of mol/L): 6.48 | GI50 (cell line HCC1395, censored GI50 values, value is the negative log10 of mol/L): 5.61 | GI50 (cell line HCC1419, censored GI50 values, value is the negative log10 of mol/L): 6.59 | GI50 (cell line HCC1428, censored GI50 values, value is the negative log10 of mol/L): 6.28 | GI50 (cell line HCC1500, censored GI50 values, value is the negative log10 of mol/L): 5.71 | GI50 (cell line HCC1806, censored GI50 values, value is the negative log10 of mol/L): 5.82 | GI50 (cell line HCC1937, censored GI50 values, value is the negative log10 of mol/L): 6.09 | GI50 (cell line HCC1954, censored GI50 values, value is the negative log10 of mol/L): 6.63 | GI50 (cell line HCC2185, censored GI50 values, value is the negative log10 of mol/L): 6.89 | GI50 (cell line HCC3153, censored GI50 values, value is the negative log10 of mol/L): 5.48 | GI50 (cell line LY2, censored GI50 values, value is the negative log10 of mol/L): 5.82 | GI50 (cell line MCF7, censored GI50 values, value is the negative log10 of mol/L): 5.53 | GI50 (cell line MDAMB134VI, censored GI50 values, value is the negative log10 of mol/L): 6.25 | GI50 (cell line MDAMB175VII, censored GI50 values, value is the negative log10 of mol/L): 6.18 | GI50 (cell line MDAMB231, censored GI50 values, value is the negative log10 of mol/L): 5.21 | GI50 (cell line MDAMB361, censored GI50 values, value is the negative log10 of mol/L): 5.84 | GI50 (cell line MDAMB436, censored GI50 values, value is the negative log10 of mol/L): 5.88 | GI50 (cell line MDAMB453, censored GI50 values, value is the negative log10 of mol/L): 6.52 | GI50 (cell line MDAMB468, censored GI50 values, value is the negative log10 of mol/L): 5.96 | GI50 (cell line SKBR3, censored GI50 values, value is the negative log10 of mol/L): 6.71 | GI50 (cell line SUM52PE, censored GI50 values, value is the negative log10 of mol/L): 6.89 | GI50 (cell line SUM149PT, censored GI50 values, value is the negative log10 of mol/L): 6.01 | GI50 (cell line SUM159PT, censored GI50 values, value is the negative log10 of mol/L): 6.73 | GI50 (cell line SUM185PE, censored GI50 values, value is the negative log10 of mol/L): 7.13 | GI50 (cell line SUM1315MO2, censored GI50 values, value is the negative log10 of mol/L): 6.49 | GI50 (cell line T47D, censored GI50 values, value is the negative log10 of mol/L): 6.58 | GI50 (cell line UACC812, censored GI50 values, value is the negative log10 of mol/L): 6.62 | GI50 (cell line UACC893, censored GI50 values, value is the negative log10 of mol/L): 6.89 | GI50 (cell line ZR75B, censored GI50 values, value is the negative log10 of mol/L): 6.51 | GI50 (cell line ZR751, censored GI50 values, value is the negative log10 of mol/L): 5.87 | GI50 (cell line ZR7530, censored GI50 values, value is the negative log10 of mol/L): 6.82
